In this experiment the target is Complement factor I (Homo sapiens) (UniProt P05156). In words: In vitro activity against human Complement factor I.

The term IC50 denotes the midpoint of a concentration-inhibition curve.

Complement factor I (Homo sapiens), sequence (P05156 whole entry, looked up): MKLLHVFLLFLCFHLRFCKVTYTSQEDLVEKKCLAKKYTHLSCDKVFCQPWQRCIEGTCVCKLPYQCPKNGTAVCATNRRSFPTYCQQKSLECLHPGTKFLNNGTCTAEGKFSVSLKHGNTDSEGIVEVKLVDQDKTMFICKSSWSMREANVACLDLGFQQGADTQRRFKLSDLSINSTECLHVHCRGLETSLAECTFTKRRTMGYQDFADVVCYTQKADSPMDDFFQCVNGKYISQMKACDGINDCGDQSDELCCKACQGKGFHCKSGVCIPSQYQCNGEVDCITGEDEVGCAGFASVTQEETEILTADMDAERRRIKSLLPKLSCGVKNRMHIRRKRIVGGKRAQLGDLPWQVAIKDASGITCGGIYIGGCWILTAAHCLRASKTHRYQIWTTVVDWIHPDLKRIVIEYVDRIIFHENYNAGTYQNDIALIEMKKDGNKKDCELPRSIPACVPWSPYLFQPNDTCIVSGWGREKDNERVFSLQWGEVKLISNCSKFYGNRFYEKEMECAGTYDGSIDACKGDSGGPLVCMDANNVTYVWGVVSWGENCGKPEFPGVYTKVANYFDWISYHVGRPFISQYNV

In the case of `CS(=O)(=O)c1ccccc1-c1ccc(NC(=O)c2cc(C(F)(F)F)nn2-c2cccc(CN)c2)c(F)c1`, half-maximal inhibition (IC50) was put at 44 µM.

The values are drawn from BindingDB's records for doi:10.1021/jm000409z (Dupont Pharmaceuticals, 2001).
